{"source": "paper PMC12466602", "about": "“Novel Hybrid Peptide DEFB126 (1-39)-TP5 Inhibits LPS-Induced Inflammatory Responses and Oxidative Stress by Neutralizing LPS and Blocking the TLR4/MD2-NFκB Signaling Axis” (Antioxidants, 2025)", "molecules": {"B1": {"name": "hybrid peptide DEFB126 (1-39)-TP5 (peptide)", "peptide": "NWYVKKCLNDVGICKKKCKPEEMHVKNGWAMCGKQRDCCRKDVY", "notes": "DEFB126 (1-39): residues 21-59 of human β-defensin 126 (111 amino acids); thymopentin (TP5), the core active fragment of thymopoietin, full-length TP5; whether disulfide bonds form is left open by the authors; also called DTP; DTP peptide; source: synthetic peptide (KangLong Biochemistry, 95% purity)"}}, "key": {"RAW264.7 macrophages": {"tested_on": "RAW264.7 macrophages", "assay": "CCK-8 cell viability assay", "settings": "24 h; for cell survival rate: RAW264.7, 10 μg/mL peptide, CCK-8, OD450", "method": "RAW 264.7 cells were maintained in DMEM medium containing 10% (v/v) fetal bovine serum and 1% (v/v) penicillin-streptomycin at 37 °C, 5% CO2.\nRAW264.7 cells (3 × 10^4 cells/mL) were plated in 96-well plates in 100 μL DMEM overnight and then cultured in fresh medium containing a 2-fold concentration of peptide for another 24 h. Add 10 μL of CCK-8 solution to each well and incubate for 4 h away from light. Then, the optical density at 450 nm was measured using a microplate reader. Cell viability was determined byCell viability (%) = (OD450 (sample)/OD450 (control)) × 100%(1) where OD450 (sample) is the absorbance at 450 nm of the cells with peptides treated and OD450 (control) is the absorbance at 450 nm of the cells without peptides treated."}, "in vitro": {"assay": "in vitro", "settings": "rat, plasma", "method": "(§1) The above peptide solutions were incubated at 37 °C for varying lengths of time and then immediately transferred to pre-cooled test tubes containing 1 mL of acidic acetone (hydrochloric acid/acetone/H2O, v/v/v 1:40:5) to terminate the reaction. The concentration of the hydrochloric acid solution before dilution is 50 mM. The precipitate was subsequently separated by centrifugation at 20,000× g for 20 min at 4 °C. The obtained precipitates were dried in vacuo and then dissolved in 0.5 mL of 1 M acetic acid. Peptide analysis was conducted according to the protocol for the study of TP5 using HPLC [2]. Peptide half-lives were obtained by fitting a linear regression model based on logarithmic concentration-time."}, "LPS-induced sepsis model": {"tested_on": "LPS-induced sepsis model", "assay": "Murine LPS-induced sepsis / liver injury model", "format": "in vivo, C57BL/6 mice", "settings": "mice", "procedure": "Male C57BL/6 mice (6–8 weeks of age) were purchased from Charles River (Beijing, China). During the experiments, mice were housed in a specific-pathogen-free (SPF) environment with a temperature of 22 ± 1 °C and a relative humidity of 55 ± 10%. All the animal experiments were conducted with the approval of the Animal Care and Use Committee of China Agricultural University.\nThe mice were randomly divided into five groups of 12: control, LPS (E. coli O111: B4, Sigma-Aldrich, St. Louis, MO, USA), DEFB126 + LPS, TP5 + LPS, and DTP + LPS. The corresponding peptide (10 mg/kg) was injected intraperitoneally during the pretreatment stage. The control group was synchronized with the LPS group by injecting an equal amount of saline.\nDuring the first 7 days of the experiment, each group received the above treatments once a day. On day 7, the LPS model group and the peptide pretreatment groups (DEFB126 + LPS, TP5 + LPS, and DTP + LPS) were injected intraperitoneally with 20 mg/kg of LPS to establish a sepsis model. The control group was injected with an equal volume of saline. Sixteen hours after the LPS injection, the mice were euthanized, and liver tissues and blood samples were collected. The serum was then separated by centrifugation and stored at −80 °C for measurement.\nMouse liver tissues were fixed with 4% paraformaldehyde, embedded in paraffin, and sliced continuously on a rotary slicer (Leica, RM2235, Nußloch, Germany) at a thickness of 5 μm. After dewaxing and rehydration, the tissues were subjected to Hematoxylin-Eosin (H&E) contrast staining. LPS-induced liver injury was evaluated according to a previous study. The liver injury score was graded on a 0- to 3-point scale: 0, no injury; 1, mild injury with cytoplasmic vacuolation; 2, moderate to severe injury consisting of extensive loss of intercellular borders and nuclear pyknosis; and 3, severe necrosis consisting of liver hemorrhage and neutrophil infiltration.\nThe levels of tumor necrosis factor (TNF)-α, interleukin (IL)-6, and IL-1β in the serum of mice were detected using commercial ELISA kits (eBioscience, San Diego, CA, USA). Commercial reagent kits (Nanjing Jiancheng Bioengineering Institute, Nanjing, China) were used to detect the levels of serum alanine amino transferase (ALT) and aspartate amino transferase (AST)."}, "[1]": {"assay": "Ex vivo stability in plasma (HPLC)", "settings": "rat plasma, peptide 10 µg/mL, 37 °C, linear regression of log concentration-time, mean ± SD of 3 biological replicates", "method": "as §1"}, "[2]": {"assay": "LPS neutralization, Chromogenic End-point Tachypleus Amebocyte Lysate (CE TAL) assay", "format": "biochemical, E. coli", "settings": "LPS 1.0 U/mL, peptide 0 to 128 μg/mL, 15 min at 37 °C, OD540; mean ± SD of 3 independent experiments", "procedure": "The LPS-neutralizing ability of the peptides was assessed through a quantitative Chromogenic End-point Tachypleus Amebocyte Lysate (CE TAL) assay (Xiamen Bioendo Technology Co., Xiamen, China). LPS (final concentration 1.0 U/mL; E. coli, O55:B5) was incubated with different concentrations of the peptides (final concentration 0 to 128 μg/mL) for 15 min at 37 °C. Then, the mixtures were incubated with TAL assay reagent at 37 °C for 6 min, and the optical density at 540 nm was measured."}, "[3]": {"tested_on": "phosphorylation of IKK-β, IκB-α and NF-κB", "assay": "Western blot of NF-κB signaling pathway", "format": "cell-based", "settings": "LPS-stimulated", "procedure": "Samples were fractionated into cytoplasmic and nuclear components using the NR-PER Nuclear and Cytoplasmic Protein Extraction Kit (Thermo Fisher Scientific Inc., Waltham, MA, USA). Protein levels in each fraction were determined via a bicinchoninic acid (BCA) assay (KeyGEN Biotech, Nanjing, China). Subsequently, protein fractions were separated by 10% SDS-polyacrylamide gel electrophoresis and transferred to methanol-activated PVDF membranes (Bio-Rad, Hercules, CA, USA). After membrane transfer, the membranes were blocked with 5% skimmed milk, followed by incubation with phosphorylated antibodies: p-IKK-β, p-IкB-α, p-NF-кB (p-p65), and GAPDH (Santa Cruz), with shaking overnight at 4 °C. After TBST washing, the membranes were incubated with HRP-labeled species-matched secondary antibody (HuaAn Biologicals, Hangzhou, China) for 60 min at room temperature. The density of specific proteins was quantified using the ChemiDoc MP imaging system (Bio-Rad, Hercules, CA, USA)."}, "RAW264.7 cells": {"tested_on": "RAW264.7 cells", "assay": "ROS generation (DCFH2-DA, fluorescence microscopy and flow cytometry)", "format": "cell-based", "settings": "RAW264.7, LPS 100 ng/mL 1 h, then DTP 12 h", "procedure": "RAW264.7 cells (1 × 10^5 cells/mL cell density) were incubated with LPS (100 ng/mL) at 37 °C for 1 h. After that, cells were treated with DTP at 37 °C for 12 h. The cells were then stained with 5 μM DCFH2-DA for 30 min at 37 °C in the dark. The cells were then washed extensively with PBS before analysis by fluorescence microscope and flow cytometry."}, "[4]": {"biological_target": "Toll-like receptor 4/myeloid differentiation factor 2 (TLR4/MD-2) complex (UniProt Q9QUK6 26-835; Q9JHF9 19-160, The source, species and construct of the SPR protein are not stated. Mouse is inferred from the docking receptor (PDB 2Z64) and the mouse models. Limits by convention: TLR4 extracellular domain and ma)", "sequence (Q9QUK6 26-835, chain 1 of 2)": "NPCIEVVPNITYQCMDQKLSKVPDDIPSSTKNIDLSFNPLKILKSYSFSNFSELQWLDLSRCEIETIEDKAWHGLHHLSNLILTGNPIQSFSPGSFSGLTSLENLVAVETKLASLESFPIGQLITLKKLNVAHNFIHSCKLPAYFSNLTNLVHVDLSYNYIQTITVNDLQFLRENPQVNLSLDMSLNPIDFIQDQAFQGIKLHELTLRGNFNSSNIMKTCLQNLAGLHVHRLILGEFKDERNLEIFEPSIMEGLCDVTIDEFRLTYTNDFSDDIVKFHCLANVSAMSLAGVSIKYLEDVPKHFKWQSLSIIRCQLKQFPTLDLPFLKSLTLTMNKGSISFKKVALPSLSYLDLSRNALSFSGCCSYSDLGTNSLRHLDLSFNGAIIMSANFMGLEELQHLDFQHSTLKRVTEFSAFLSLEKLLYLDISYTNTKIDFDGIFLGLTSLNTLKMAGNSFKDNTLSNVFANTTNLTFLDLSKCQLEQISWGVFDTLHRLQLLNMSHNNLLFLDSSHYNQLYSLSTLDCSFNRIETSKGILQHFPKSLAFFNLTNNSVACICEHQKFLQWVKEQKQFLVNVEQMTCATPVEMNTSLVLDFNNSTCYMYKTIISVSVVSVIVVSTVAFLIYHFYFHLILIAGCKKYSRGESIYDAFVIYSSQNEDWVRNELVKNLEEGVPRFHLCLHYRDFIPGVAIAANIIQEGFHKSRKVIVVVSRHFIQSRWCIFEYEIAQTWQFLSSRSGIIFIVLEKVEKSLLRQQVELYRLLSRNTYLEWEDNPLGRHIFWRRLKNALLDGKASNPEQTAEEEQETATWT", "sequence (Q9JHF9 19-160, chain 2 of 2)": "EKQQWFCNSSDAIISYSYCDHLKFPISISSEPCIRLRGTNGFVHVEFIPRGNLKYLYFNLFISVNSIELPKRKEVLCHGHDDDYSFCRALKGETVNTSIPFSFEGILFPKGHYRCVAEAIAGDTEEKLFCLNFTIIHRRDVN", "assay": "SPR; Biacore X100, CM5 chip, amine coupling; running buffer PBS with 0.05% Tween 20, 30 μL/min; peptide gradient 0, 1.25, 2.5, 5 and 10 mM as printed; 1:1 binding model; legend and results: TLR4/MD-2 immobilised and DTP flowed over (the methods say DTP was immobilised)", "settings": "both partners purified"}, "[5]": {"settings": "ELISA, peptide 10 mg/kg i.p. pretreatment, LPS, 16 h"}, "[6]": {"settings": "peptide 10 mg/kg i.p. once daily pretreatment, then LPS i.p., 16 h after LPS"}, "[7]": {"settings": "peptide 10 mg/kg i.p. pretreatment, LPS, 16 h"}}, "note": "Marks after values point to notes of the source that are not given here. Where no end group is shown, it is not given here."}
{"molecule": "NWYVKKCLNDVGICKKKCKPEEMHVKNGWAMCGKQRDCCVPAD (cysteines drawn unpaired) [DEFB126]", "values": [{"measurement": "cell survival rate", "setting": "RAW264.7 macrophages", "result": "higher than 80%"}, {"measurement": "half-life at 10 µg/mL", "setting": "in vitro", "result": "5.41 ± 0.885", "unit": "h"}]}
{"molecule": "NWYVKKCLNDVGICKKKCKPEEMHVKNGWAMCGKQRDCCRKDVY (cysteines drawn unpaired) [DTP]", "values": [{"measurement": "serum IL-1β level", "setting": "LPS-induced sepsis model; [5]", "result": "significantly decreased"}, {"measurement": "serum IL-6 level", "setting": "LPS-induced sepsis model; [5]", "result": "significantly decreased"}, {"measurement": "serum TNF-α level", "setting": "LPS-induced sepsis model; [5]", "result": "significantly decreased"}, {"measurement": "liver injury score", "setting": "LPS-induced sepsis model; H&E, 0- to 3-point scale, peptide 10 mg/kg i.p. pretreatment, LPS, 16 h", "result": "significantly lower liver injury score than the LPS-treated, TP5-pretreated, and DEFB126-pretreated groups"}, {"measurement": "serum ALT level", "setting": "LPS-induced sepsis model; [6]", "result": "markedly lower than those in the TP5-pretreated group and DEFB126-pretreated group"}, {"measurement": "serum AST level", "setting": "LPS-induced sepsis model; [6]", "result": "markedly lower than those in the TP5-pretreated group and DEFB126-pretreated group"}, {"measurement": "liver CAT activity", "setting": "LPS-induced sepsis model; [7]", "result": "significantly reversed these effects"}, {"measurement": "liver GSH-Px activity", "setting": "LPS-induced sepsis model; [7]", "result": "significantly reversed these effects"}, {"measurement": "liver SOD activity", "setting": "LPS-induced sepsis model; [7]", "result": "significantly reversed these effects"}, {"measurement": "cell survival rate", "setting": "RAW264.7 macrophages", "result": "higher than 80%"}, {"measurement": "cytotoxicity compared with parental peptides", "setting": "RAW264.7 macrophages; RAW264.7, 2-fold series of concentrations, CCK-8", "result": "significantly lower than DEFB126 and TP5"}, {"measurement": "t1/2 in plasma", "setting": "[1]", "result": "349 ± 69.17 ^a min"}, {"measurement": "50% neutralization rate value", "setting": "[2]", "result": "approximately 11.58 ± 2.07 μg/mL"}, {"measurement": "LPS-induced phosphorylation of IKK-β, IκB-α and NF-κB", "setting": "[3]", "result": "significantly inhibited"}, {"measurement": "LPS-induced ROS generation", "setting": "RAW264.7 cells", "result": "remarkably attenuated"}]}
{"molecule": "B1", "values": [{"measurement": "Kd", "setting": "[4]", "result": 2300, "unit": "nM"}]}
